# Measured values as given in paper PMC9532399, “The lysosomal transporter TAPL has a dual role as peptide translocator and phosphatidylserine floppase” (Nature Communications, 2022).
# Tests used:
# TAPL E456A mutant = experiment: Peptide transport assay, E456A; format: biochemical, mouse; settings: 9-mer 10 mM (sic), 3 mM ATP
# Description: (§1) Proteoliposomes for peptide transport assays were prepared according to the protocol of Zhao et al., with some modifications. Briefly, E. coli polar lipid extract dissolved in chloroform was dried under a gentle stream of nitrogen. The thin film of lipids was placed under a desiccator overnight to completely remove residual chloroform and then hydrated in 1X PBS buffer pH 7.4 (137 mM NaCl, 2.7 mM KCl, 8 mM Na2HPO4, and 2 mM KH2PO4) with 10 mM MgCl2 and 5% (v/v) glycerol. After water bath sonication at 22 °C for 5 min (Powersonic 610, KLEENTEK), the lipid solution was extruded using a Mini-Extruder equipped with a polycarbonate membrane filter (200 nm pore) (Avanti Polar Lipids, Inc.) to obtain unilamellar vesicles, which were destabilized with 0.36% (w/v) DM. The DM-purified protein and lipid suspension were mixed in a 1:50 (w/w) ratio. After incubation at 4 °C for 2 h, the mixture was treated with Bio-Beads SM-2 resin (60 and 120 mg, see above) at 4 °C for a total of 18 h to remove detergent. The proteoliposomes were collected by centrifugation at 200,000×g for 1.5 h at 4 °C and resuspended in the buffer described above.
# (§2) The peptide transport activity of ΔTMD0 was measured as described previously. Briefly, 50 μL of ΔTMD0-loaded proteoliposomes (~0.6 μg protein) were added into 200 μL reaction buffer containing 1X PBS pH 7.4, 3 mM ATP, and 10 mM MgCl2 in the presence or absence of 10 μM 5-IAF-labeled peptides. To investigate transport activity, the mixture was incubated at 37 °C for 10 min. The reaction was terminated by incubating the mixture for 20 min on ice. Proteoliposomes were collected by centrifugation at 200,000×g for 30 min and then washed twice with 1X PBS. The proteoliposomes were completely disrupted by adding 10% (w/v) SDS solution (final concentration, 2%). The transported peptide was measured using a microplate reader (Gemini XPS) with excitation at 485 nm and emission at 520 nm.
# TAPL Y405A mutant = biological target: T1, TAPL Y405A mutant (Mus musculus, UniProt Q9JJ59, Y405A); experiment: Peptide transport assay, Y405A; format: biochemical; settings: 9-mer 10 mM (sic), 3 mM ATP
# T1 construct: thrombin cleavage site (C); eGFP (C); 10XHis (C); made in house; host or cells: Trichoplusia ni High Five (Hi5) insect cells, baculovirus (pVL1393)
# T1 sequence (Q9JJ59 143-762 Y405A): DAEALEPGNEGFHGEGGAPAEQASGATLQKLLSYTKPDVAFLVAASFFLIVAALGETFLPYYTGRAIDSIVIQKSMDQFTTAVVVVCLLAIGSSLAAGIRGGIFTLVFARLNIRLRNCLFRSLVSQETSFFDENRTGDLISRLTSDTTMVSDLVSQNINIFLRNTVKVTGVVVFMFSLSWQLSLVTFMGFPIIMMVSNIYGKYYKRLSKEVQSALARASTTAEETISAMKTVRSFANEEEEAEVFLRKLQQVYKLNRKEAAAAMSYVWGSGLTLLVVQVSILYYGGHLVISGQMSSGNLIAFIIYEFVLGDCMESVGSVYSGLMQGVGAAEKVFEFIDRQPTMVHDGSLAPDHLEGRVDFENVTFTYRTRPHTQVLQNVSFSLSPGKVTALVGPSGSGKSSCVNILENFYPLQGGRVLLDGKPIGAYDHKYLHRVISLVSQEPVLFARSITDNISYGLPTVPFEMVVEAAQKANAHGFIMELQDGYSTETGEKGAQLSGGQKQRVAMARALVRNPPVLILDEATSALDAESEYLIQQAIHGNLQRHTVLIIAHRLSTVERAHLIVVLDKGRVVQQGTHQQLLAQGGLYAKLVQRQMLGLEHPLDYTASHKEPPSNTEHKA
# Description: as §1, §2
substance,measurement,setting,value
"RRYQNSTC^5-IAFL [9-mer, 5-IAF-labeled peptide of 9 residues (RRYQNSTC^5-IAFL)]",Transport activity,TAPL E456A mutant; replicate I,48.9147%
same,Transport activity,TAPL E456A mutant; replicate II,53.6761%
same,Transport activity,TAPL E456A mutant; replicate III,40.3825%
same,Transport activity,"TAPL E456A mutant; wild-type = 100%, mean n=3",47.6578%
same,Transport activity,TAPL Y405A mutant; replicate I,18.1424%
same,Transport activity,TAPL Y405A mutant; replicate II,19.1407%
same,Transport activity,TAPL Y405A mutant; replicate III,12.1153%
same,Transport activity,"TAPL Y405A mutant; wild-type = 100%, mean n=3",16.4661%
